# Experimental data: patent US20230211004A1, “TETANUS TOXOID AND CRM-BASED PEPTIDES AND METHODS OF USE” (UNIVERSITY OF GEORGIA RESEARCH FOUNDATION, INC., priority 2019, published 2023)
# “Also recorded” adds a separate entry of the source.
# Assays:
# CD4+ T cells = type: cell-based, human
# [1] = test system: IFN-γ production by CD4+ T cell enriched donor PBMCs; type: cell-based, human
# [2] = test system: MHCII molecules (HLA-DR, HLA-DP, HLA-DQ) of Raji B cells; type: binding, human
Sequence,CD4+ T cell proliferation compared to basal growth rate (CD4+ T cells),Donor 3 CFSE (CD4+ T cells),Donor 4 CFSE (CD4+ T cells),donors that gave positive / significant T cell response (CD4+ T cells),Donor 1 IFN-γ [1],Donor 2 IFN-γ [1],Donor 3 IFN-γ [1],Donor 4 IGN-γ [1],IFN-γ production [1],number of donors with significant levels of IFN-γ [1],Donor 1 CFSE (CD4+ T cells),Donor 2 CFSE (CD4+ T cells),number of donors with positive T cell proliferative response (CD4+ T cells),Observed in Isotypes [2],T cell response against previously published TT epitopes (CD4+ T cells)
GLTKVLALKVD (CRM-derived peptide) [CRM87-97],not significant compared to basal growth rate,** (key: * p < 0.05; ** p < 0.005; *** p < 0.0005),*** (key: * p < 0.05; ** p < 0.005; *** p < 0.0005),Donors 3 and 4,* (key: * p < 0.05; ** p < 0.005; *** p < 0.0005),** (key: * p < 0.05; ** p < 0.005; *** p < 0.0005),*** (key: * p < 0.05; ** p < 0.005; *** p < 0.0005),** (key: * p < 0.05; ** p < 0.005; *** p < 0.0005),significant levels of IFN-γ response; also recorded: significant production of IFN-γ,at least three,,,,,
KTTAALSILPGIGS (CRM-derived peptide) [CRM299-312],increased proliferation,** (key: * p < 0.05; ** p < 0.005; *** p < 0.0005),*** (key: * p < 0.05; ** p < 0.005; *** p < 0.0005),,* (key: * p < 0.05; ** p < 0.005; *** p < 0.0005),** (key: * p < 0.05; ** p < 0.005; *** p < 0.0005),* (key: * p < 0.05; ** p < 0.005; *** p < 0.0005),** (key: * p < 0.05; ** p < 0.005; *** p < 0.0005),significant levels of IFN-γ response; also recorded: significant production of IFN-γ,at least three,*** (key: * p < 0.05; ** p < 0.005; *** p < 0.0005),*** (key: * p < 0.05; ** p < 0.005; *** p < 0.0005),four,"pulled down in the HLA-DP specific immunoprecipitation; also recorded: pulled down in the -DQ IP; also recorded: identified through the -DR IP; also recorded: DR, DP, DQ",
"QYIKANSKFIGITEL (TT-derived peptide) [Peptide P2, reference compound]",did not show increased proliferation; also recorded: did not show significant proliferation,* (key: * p < 0.05; ** p < 0.005; *** p < 0.0005),*** (key: * p < 0.05; ** p < 0.005; *** p < 0.0005),,,,,* (key: * p < 0.05; ** p < 0.005; *** p < 0.0005),,,,,,,no significant response
NILMQYIKANSK (TT-derived peptide) [TT826-837],no significant response,,,,,,* (key: * p < 0.05; ** p < 0.005; *** p < 0.0005),,,,,,one,,
DRILRVGYNAPGIPL (TT-derived peptide) [TT1222-1236],,,* (key: * p < 0.05; ** p < 0.005; *** p < 0.0005),,,*** (key: * p < 0.05; ** p < 0.005; *** p < 0.0005),,,significant production of IFN-γ,,* (key: * p < 0.05; ** p < 0.005; *** p < 0.0005),*** (key: * p < 0.05; ** p < 0.005; *** p < 0.0005),three,,
TPLPIAGVLLPTIPGK (CRM-derived peptide) [CRM425-440],increased proliferation,** (key: * p < 0.05; ** p < 0.005; *** p < 0.0005),*** (key: * p < 0.05; ** p < 0.005; *** p < 0.0005),"Donors 2,3, and 4",,** (key: * p < 0.05; ** p < 0.005; *** p < 0.0005),** (key: * p < 0.05; ** p < 0.005; *** p < 0.0005),*** (key: * p < 0.05; ** p < 0.005; *** p < 0.0005),significant production of IFN-γ,at least three,,*** (key: * p < 0.05; ** p < 0.005; *** p < 0.0005),three,"pulled down in the -DQ IP; also recorded: DR, DQ",
